# Test results taken from US20250332378A1, “CATHETERS” (ConvaTec Limited, priority 2023, published 2025).
# Experiments:
# Type in all cases: cell-based
# E. coli = assay: Rate of kill assessment against repeat inoculation, catheter submerged in medium; conditions: for time up to which highly effective kill was observed: all time periods post-inoculation; for time up to which rapid kill was observed: within 5 seconds following inoculation, repeat inoculation up to 24 hours
# Protocol: (§1) To assess the sterilisation potential of the medium of the invention, a microbiology assessment was conducted which consisted of rate of kill assessments against repeat inoculation of E. coli and E. faecalis. These organisms were selected as they are commonly identified in catheter associated urinary tract infections. The selection also covers both gram-positive and gram-negative species to test the broad spectrum antimicrobial performance of the medium of the invention.
# (§2) Intermittent urinary catheters, as used for Example 1, were provided and submerged in an aqueous medium comprising sodium hypochlorite and sodium chloride. The media comprising the catheters were respectively inoculated with the two microorganisms.
# (§3) A direct inoculation method was applied against each microorganism. The test organisms were reinoculated following 1, 2, 3, 4, 5, 6, and 24 hours. Following each inoculation, a sample was taken after 5 seconds, 1, 5, 10 and 15 minutes to evaluate the rate of kill.
# (§4) A microbiology assessment was performed using a medium of the invention comprising hypochlorous acid in an analogous manner to that performed for Example 2. However, for this test, following each inoculation, a sample was only taken after 5 seconds to evaluate the rate of kill. Further, in addition to the previous microorganisms tested, a further gram-positive organism, S. aureus, was tested.
# (§5) To evaluate the antimicrobial activity further, the test was repeated using the same frequency of inoculation, but with sampling performed up to 5 minutes after reinoculation at 24 hours. Even for the most challenging organism, E. faecalis, a reduction in the microbial colony forming unit (CFU) counts of over 3 orders of magnitude was observed after 5 minutes of inoculation.
# (§6) A microbiology assessment was performed using the media of the invention comprising hypochlorous acid in an analogous manner to that performed for Example 2. However, for this test, following each inoculation, samples were taken after 5 seconds, 30 seconds, 1, 2, and 5 minutes to evaluate the rate of kill.
# E. faecalis = assay: as above; conditions: for reduction in the microbial colony forming unit (CFU) counts: reinoculation at 24 hours; for time up to which rapid kill was observed: within 5 seconds following inoculation, repeat inoculation up to 24 hours
# Protocol: as §1, §2, §3, §4, §5, §6
# S. aureus = assay: as above; conditions: within 5 seconds following inoculation; repeat inoculation up to 24 hours
# Protocol: as §1, §2, §3, §4
# E. coli NCIMB 14067 = assay: Antimicrobial efficacy at very low concentrations, total viable counts; conditions: for numbers of bacteria: after 30 seconds, approximately 1×10^5 CFU/mL inoculated
# Protocol: The antimicrobial efficacy of hypochlorous acid was tested at even lower concentrations (10, 25, and 50 ppm) against the challenging organism E. coli NCIMB 14067.
# The representative colonies of E. coli NCIMB 14067 were dispersed in maximum recovery diluent (MRD) to obtain an optical density (OD540 nm) equivalent to approximately 1×10^6 CFU/mL. A quantitative plate count was performed on this suspension to determine the total number of viable organisms inoculated. A new suspension was prepared for each concentration tested.
# A 1000 ppm hypochlorous acid solution was diluted in sterile deionised water to provide the respective 10, 25 and 50 ppm hypochlorous acid solutions.
# The hypochlorous acid samples were aliquoted into 9 mL volumes and 1 mL of the challenge organism suspension was added and mixed (the final number of bacteria present is now approximately 1×10^5 CFU/mL). Following 5, 30 seconds, 1, 2, and 5 minutes, 100 μL volumes were sampled and transferred to 0.9 mL and 9.9 mL of Dey-Engley Neutralising Broth (DENB) (to provide a 1:10 and 1:100 dilution respectively), and total viable counts were performed to establish the amount present. The plates were left to dry before being inverted and incubated at 35±3° C. for at least 48 hours. A negative control was also tested whereby 1 mL of the challenge organism suspension was added to 9 mL of MRD and tested as previously described. Following the incubation period, the number of CFUs were counted on the most appropriate dilution for each sample i.e. between 25-250 CFU/plate.
# [1] = test system: Enterococcus faecalis NCTC 12201; assay: In vitro direct inoculation method, comparative test
# Protocol: (§7) An in vitro direct inoculation method was used to assess the antimicrobial activity of sulfanilamide in an intermittent urinary catheter scenario against […] Escherichia coli NCIMB 14067 and […] Enterococcus faecalis NCTC 12201; two microorganisms associated with urinary tract infections. Sulfanilamide concentrations of 0.1% and 0.01% were tested and bacterial levels monitored over a period of 5 minutes.
# (§8) Representative colonies of the challenge microorganisms, from an 18-24 hour challenge culture plate, were dispersed in MRD to obtain an optical density (OD540 nm) equivalent to approximately 1×10^8 CFU/mL. This was diluted to obtain a working concentration of 1×10^6 CFU/mL. A quantitative count was performed to confirm the inoculum level.
# (§9) The challenge organism was prepared in MRD to a concentration of approximately 1×10^6 CFU/mL. This suspension was added in a 1 mL volume to 9 mL of sample (n=3 per sample, n=2 per control) in a sterile 30 mL universal and pipetted up and down to mix. Following each testing period, 5 seconds, 30 seconds, 1 minute, 2 minutes and 5 minutes, 100 μL of the test solution was transferred to 0.9 mL and 9.9 mL volumes of DENB (1:10 and 1:100 dilutions respectively). The most appropriate dilutions were inoculated (100 μL) onto duplicate pre-dried (tryptone soy agar) TSA plates and the inoculum spread using separate sterile L-shaped spreaders (for 10^−1 and 10^−2 dilutions, 0.5 mL were placed onto duplicate plates). The TSA plates were allowed to dry before being inverted and incubated at 35±3° C. for at least 48 hours. Following the incubation period, the number of bacterial colonies were counted on the most appropriate dilution for each dressing type i.e. between 25-250 CFU/plate.
# (§10) The samples tested were: 0.1% sulfanilamide in sterile deionised water (SDW); 0.01% sulfanilamide in SDW; 100 ppm hypochlorous acid in SDW; and a SDW control.
# [2] = test system: Escherichia coli NCIMB 14067; assay: as above
# Protocol: as §7, §8, §9, §10
# [3] = 675 ppm, 30 seconds after sampling
# [4] = each concentration tested (250, 675, 1000, 2000 ppm), after 5 minutes of sampling
# [5] = 100 ppm in SDW, within 5 seconds and for the remaining testing period (5 minutes)
# [6] = 0.1% and 0.01% in SDW, any timepoint, 5 seconds to 5 minutes
structure (smiles),measurement,setting,value
OCl [hypochlorous acid],time up to which highly effective kill was observed,E. coli; 250 ppm,up to 5 hours
same,time up to which highly effective kill was observed,E. coli; 675 ppm and above,up to 24 hours
same,time up to which effective kill was observed,E. coli; [3],up to 24 hours
same,time up to which effective kill was found,E. coli; [4],up to 24 hours
same,time up to which rapid kill was observed,E. coli,up to 24 hours
same,time up to which highly effective kill was observed,"E. faecalis; 250 ppm, 30 seconds post-inoculation",Up to 5 hours
same,time up to which highly effective kill was observed,"E. faecalis; 250 ppm, all time periods post-inoculation",up to 4 hours
same,time up to which effective kill was observed,E. faecalis; [3],up to 24 hours
same,time up to which highly effective kill was observed,"E. faecalis; 675 ppm, all time periods post-inoculation",up to 6 hours
same,time up to which highly effective kill was observed,"E. faecalis; 675 ppm, from 30 seconds post-inoculation",up to 24 hours
same,time up to which highly effective kill was observed,"E. faecalis; 1000 ppm, all time periods post-inoculation",up to 24 hours
same,reduction in the microbial colony forming unit (CFU) counts,E. faecalis; after 5 minutes of inoculation,over 3 orders of magnitude
same,time up to which effective kill was found,E. faecalis; [4],up to 24 hours
same,time up to which rapid kill was observed,E. faecalis,up to 6 hours
same,time up to which rapid kill was observed,S. aureus,up to 6 hours
same,numbers of bacteria,E. coli NCIMB 14067; 25 ppm,undetectable numbers
same,numbers of bacteria,E. coli NCIMB 14067; 50 ppm,undetectable numbers
same,CFU/mL of negative control (MRD) larger than for the samples by,"E. coli NCIMB 14067; all concentrations (10, 25, 50 ppm) and time points tested",over 4 orders of magnitude
same,numbers of challenge organism,[1]; [5],undetectable numbers
same,numbers of challenge organism,[2]; [5],undetectable numbers
[O][Cl+][O-] [chlorine dioxide],time up to which rapid kill was observed,E. coli,up to 24 hours
same,reduction in the microbial colony forming unit (CFU) counts,E. faecalis; after around 30 seconds of inoculation,4 orders of magnitude
same,time up to which rapid kill was observed,E. faecalis,up to 6 hours
same,time up to which rapid kill was observed,S. aureus,up to 6 hours
"Nc1ccc(S(N)(=O)=O)cc1 [sulfanilamide, reference compound]",change in challenge organism numbers compared to the control,[1]; [6],no decrease
same,change in challenge organism numbers compared to the control,[2]; [6],no decrease
